From patent publication US20150374673A1, “Combination Therapy for the Treatment of Nosocomial Pneumonia” (priority 2013, published 2015)

Columns and labels:
Assay in all cases: MIC, CLSI broth microdilution in CAMHB with 0-10% pulmonary surfactant (avibactam fixed at 4 μg/mL in combination)
[1] = system: S. aureus; type: cell-based, Staphylococcus aureus
Procedure: (§1) The bacterial strains used in this testing were part of the microbiological culture collection housed at AstraZeneca R&D Boston (AstraZeneca Research Collection, designated ARC). The panel of bacterial isolates used for this testing was comprised of five CLSI QC reference strains and the remainder were either recent clinical isolates expressing β-lactamases or isolates from the primary bacterial screening panels.
(§2) MIC values were determined using the CLSI broth microdilution methodology with slight variation. Stock compound mother plates were prepared and used to spot 2 μL aliquots of serial 2-fold drug dilutions to columns 1-11 of 96-well daughter plates using a Perkin-Elmer MiniTrak™ MultiPosition dispenser. […] An inoculum volume of 100 μL (5×10E^5 CFU/mL) in CAMHB containing 0, 1, 2.5, 5, or 10% pulmonary surfactant was added using a multichannel Finnpipette® to each well of the 96-well plate.
(§3) The minimum inhibitory concentration (MIC) values against each organism/drug combination were determined using broth microdilution methodology according to CLSI guidelines. The recommended reference bacterial strains for each test group and reference compounds were incorporated into each test. For Gram-negatives, the reference bacterial strains were Escherichia coli ATCC 25922, E. coli ATCC 35218, Klebsiella pneumoniae ATCC 700603, and Pseudomonas aeruginosa ATCC 27853. Staphylococcus aureus ATCC 29213 was the reference bacterial strain for the Gram-positives.
(§4) MIC values for individual isolates were read visually. The MICs for each compound or combination in pulmonary surfactant was compared to the compound or combination tested in CAMHB alone.

[2] = system: E. coli; type: cell-based; conditions: Escherichia coli
Procedure: as §1, §2, §3, §4

[3] = system: K. pneumoniae; type: cell-based; conditions: Klebsiella pneumoniae
Procedure: as §1, §2, §3, §4

In the case of `CC(C)(O/N=C(\C(=O)N[C@@H]1C(=O)N2C(C(=O)[O-])=C(C[n+]3ccccc3)CS[C@H]12)c1csc(N)n1)C(=O)O` [ceftazidime, (6R,7R)-7-[[(2Z)-2-(2-amino-1,3-thiazol-4-yl)-2-(1-hydroxy-2-methyl-1-oxopropan-2-yl)oxyiminoacetyl]amino]-8-oxo-3-(pyridin-1-ium-1-ylmethyl)-5-thia-1-azabicyclo[4.2.0]oct-2-ene-2-carboxylate pentahydrate], the MIC ([1]; S. aureus ARC12 (CLSI QC strain, ATCC 29213), surfactant 0%) is reported as 8 µg/mL, the MIC ([1]; S. aureus ARC12 (CLSI QC strain, ATCC 29213), surfactant 1%) is reported as 16 µg/mL and the MIC ([1]; S. aureus ARC12 (CLSI QC strain, ATCC 29213), surfactant 2.5%) is reported as 16 µg/mL. For the same molecule, the MIC ([1]; S. aureus ARC12 (CLSI QC strain, ATCC 29213), surfactant 5%) was 8 µg/mL, the MIC ([1]; S. aureus ARC12 (CLSI QC strain, ATCC 29213), surfactant 10%) was 8 µg/mL and the MIC ([1]; S. aureus ARC516 (MRSA, quinolone-resistant), surfactant 0%) was >64 µg/mL. For the same molecule, the MIC ([1]; S. aureus ARC516 (MRSA, quinolone-resistant), surfactant 1%) was >64 µg/mL, the MIC ([1]; S. aureus ARC516 (MRSA, quinolone-resistant), surfactant 2.5%) was >64 µg/mL and the MIC ([1]; S. aureus ARC516 (MRSA, quinolone-resistant), surfactant 5%) was >64 µg/mL. The MIC ([1]; S. aureus ARC516 (MRSA, quinolone-resistant), surfactant 10%) was >64 µg/mL, the MIC ([2]; ATCC25922, E. coli ARC4 (CLSI QC strain, ATCC 25922), surfactant 0%) was 0.25 µg/mL and the MIC ([2]; ATCC25922, E. coli ARC4 (CLSI QC strain, ATCC 25922), surfactant 1%) was 0.25 µg/mL. For the same molecule, the MIC ([2]; ATCC25922, E. coli ARC4 (CLSI QC strain, ATCC 25922), surfactant 2.5%) was 0.25 µg/mL, the MIC ([2]; ATCC25922, E. coli ARC4 (CLSI QC strain, ATCC 25922), surfactant 5%) was 0.25 µg/mL and the MIC ([2]; ATCC25922, E. coli ARC4 (CLSI QC strain, ATCC 25922), surfactant 10%) was 0.25 µg/mL. It also gave an MIC ([2]; ATCC35218, E. coli ARC016 (ATCC 35218, TEM-1), surfactant 0%) of 0.12 µg/mL, an MIC ([2]; ATCC35218, E. coli ARC016 (ATCC 35218, TEM-1), surfactant 1%) of 0.12 µg/mL and an MIC ([2]; ATCC35218, E. coli ARC016 (ATCC 35218, TEM-1), surfactant 2.5%) of 0.12 µg/mL. For the same molecule, the MIC ([2]; ATCC35218, E. coli ARC016 (ATCC 35218, TEM-1), surfactant 5%) was 0.12 µg/mL, the MIC ([2]; ATCC35218, E. coli ARC016 (ATCC 35218, TEM-1), surfactant 10%) was 0.12 µg/mL and the MIC ([2]; E. coli ARC523 (W3110), surfactant 0%) was 0.5 µg/mL. It also gave an MIC ([2]; E. coli ARC523 (W3110), surfactant 1%) of 0.5 µg/mL, an MIC ([2]; E. coli ARC523 (W3110), surfactant 2.5%) of 0.25 µg/mL and an MIC ([2]; E. coli ARC523 (W3110), surfactant 5%) of 0.5 µg/mL. It also gave an MIC ([2]; E. coli ARC523 (W3110), surfactant 10%) of 0.5 µg/mL, an MIC ([2]; E. coli ARC3666 (CTX-M-15, OXA-1/30, SHV-31, TEM-1), surfactant 0%) of 32 µg/mL and an MIC ([2]; E. coli ARC3666 (CTX-M-15, OXA-1/30, SHV-31, TEM-1), surfactant 1%) of 32 µg/mL. For the same molecule, the MIC ([2]; E. coli ARC3666 (CTX-M-15, OXA-1/30, SHV-31, TEM-1), surfactant 2.5%) was 32 µg/mL, the MIC ([2]; E. coli ARC3666 (CTX-M-15, OXA-1/30, SHV-31, TEM-1), surfactant 5%) was 32 µg/mL and the MIC ([2]; E. coli ARC3666 (CTX-M-15, OXA-1/30, SHV-31, TEM-1), surfactant 10%) was 32 µg/mL. For the same molecule, the MIC ([2]; E. coli ARC3690 (CTX-M-15, SHV-12), surfactant 0%) was 64 µg/mL, the MIC ([2]; E. coli ARC3690 (CTX-M-15, SHV-12), surfactant 1%) was 64 µg/mL and the MIC ([2]; E. coli ARC3690 (CTX-M-15, SHV-12), surfactant 2.5%) was 64 µg/mL. The MIC ([2]; E. coli ARC3690 (CTX-M-15, SHV-12), surfactant 5%) was 64 µg/mL, the MIC ([2]; E. coli ARC3690 (CTX-M-15, SHV-12), surfactant 10%) was 64 µg/mL and the MIC ([3]; ATCC700603, K. pneumoniae ARC561 (ATCC 700603; SHV-18, OXA-2, OKP-6), surfactant 0%) was 32 µg/mL. It also gave an MIC ([3]; ATCC700603, K. pneumoniae ARC561 (ATCC 700603; SHV-18, OXA-2, OKP-6), surfactant 1%) of 32 µg/mL, an MIC ([3]; ATCC700603, K. pneumoniae ARC561 (ATCC 700603; SHV-18, OXA-2, OKP-6), surfactant 2.5%) of 32 µg/mL and an MIC ([3]; ATCC700603, K. pneumoniae ARC561 (ATCC 700603; SHV-18, OXA-2, OKP-6), surfactant 5%) of 32 µg/mL. For the same molecule, the MIC ([3]; ATCC700603, K. pneumoniae ARC561 (ATCC 700603; SHV-18, OXA-2, OKP-6), surfactant 10%) was 32 µg/mL, the MIC ([3]; K. pneumoniae ARC1865 (Primary Screening Panel), surfactant 1%) was 0.25 µg/mL and the MIC ([3]; K. pneumoniae ARC1865 (Primary Screening Panel), surfactant 2.5%) was 0.5 µg/mL. The MIC ([3]; K. pneumoniae ARC1865 (Primary Screening Panel), surfactant 5%) was 0.5 µg/mL, the MIC ([3]; K. pneumoniae ARC1865 (Primary Screening Panel), surfactant 10%) was 0.5 µg/mL and the MIC ([3]; K. pneumoniae ARC1865 (Primary Screening Panel), surfactant concentration cell empty) was 0.5 µg/mL. The MIC ([3]; K. pneumoniae ARC2528 (Clinical isolate), surfactant 0%) was 1 µg/mL.
